The record followed here is ChEMBL document CHEMBL1201862, “PubChem BioAssay data set” (2004).

Among the test systems are SNB-19; UO-31; CCRF-CEM; SF-295; EKVX; MCF7; CAKI-1; MDA-MB-435; SK-OV-3; 786-0; SR; NCI-H226; SF-268; SN12C; Malme-3M; UACC-257; SNB-75; MOLT-4; OVCAR-4.
Common to all, as to assay: NCI tumour cell line growth inhibition, 48 h

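48-hour exposure; five concentrations; linearly interpolated endpoints. Here, GI50 denotes the concentration required for 50% inhibition of growth.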 Activity calls are given as the source filed them. Cut-off read from the data, not from the text of the source: active = GI50 up to about 1.1 µM and inactive = higher.

For the compound `C=CC[C@H]1[C@H](O[Si](C)(C)C(C)(C)C)C=CC(=O)[C@@H]1CC(=O)OCC`, the GI50 in the assay with SNB-19 is 13 µM (inactive); with UO-31, 12.9 µM (inactive); in the assay with CCRF-CEM, 12 µM (inactive); in the assay on SF-295, 13.5 µM (inactive); with EKVX, 11.9 µM (inactive); with MCF7, 11.5 µM (inactive). In addition, the GI50 in the assay on CAKI-1 was 12.4 µM (inactive); with MDA-MB-435 it was 13.4 µM (inactive); in the assay on SK-OV-3, 18.3 µM (inactive); in the assay on 786-0 it was 14.5 µM (inactive); in the assay with SR, 15 µM (inactive); in the assay with NCI-H226 it was 14.8 µM (inactive). For the same compound, the GI50 in the assay with SF-268 is 14.4 µM (inactive); in the assay with SN12C, 16.3 µM (inactive); in the assay with Malme-3M it was 12.7 µM (inactive); in the assay with UACC-257, 3.98 µM (inactive); in the assay with SNB-75, 16.3 µM (inactive); in the assay on MOLT-4, 22 µM (inactive). For the same compound, in the assay on OVCAR-4, the GI50 is 11.8 µM (inactive).
Turning to `Cc1csc2nc3[nH]ncc3c(=O)n12`, the GI50 in the assay with SNB-19 is > 100 µM (inactive); in the assay with UO-31, 81.8 µM (inactive); in the assay on CCRF-CEM, > 100 µM (inactive); in the assay with SF-295, > 100 µM (inactive); in the assay on EKVX, > 100 µM (inactive); with MCF7 it was > 100 µM (inactive). The GI50 in the assay with CAKI-1 was > 100 µM (inactive); in the assay with MDA-MB-435, > 100 µM (inactive); in the assay with SK-OV-3, > 100 µM (inactive); in the assay on 786-0, > 100 µM (inactive); in the assay on SR it was > 100 µM (inactive); with NCI-H226, 40.6 µM (inactive). Also, the GI50 in the assay with SF-268 was > 100 µM (inactive); in the assay with SN12C it was > 100 µM (inactive); in the assay on Malme-3M, > 100 µM (inactive); in the assay on UACC-257, > 100 µM (inactive); in the assay with SNB-75, 61 µM (inactive); in the assay with MOLT-4, > 100 µM (inactive). In addition, the GI50 in the assay with OVCAR-4 is > 100 µM (inactive).
Turning to `O=C1c2ccccc2-c2[nH]c3cn[nH]c(=O)c3c21`, the GI50 in the assay on SNB-19 is > 100 µM (inactive); in the assay on UO-31, 23.8 µM (inactive); in the assay with CCRF-CEM, > 100 µM (inactive); with SF-295, > 100 µM (inactive); in the assay with EKVX, 79.4 µM (inactive); in the assay on MCF7, 43.9 µM (inactive). The GI50 with CAKI-1 is 91.6 µM (inactive); in the assay on MDA-MB-435, 48.6 µM (inactive); in the assay with SK-OV-3 it was > 100 µM (inactive); in the assay with 786-0, > 100 µM (inactive); in the assay with SR it was 45 µM (inactive); in the assay with NCI-H226 it was 78.7 µM (inactive). For the same compound, the GI50 in the assay on SF-268 is 99.1 µM (inactive); in the assay with SN12C it was > 100 µM (inactive); in the assay with Malme-3M it was > 100 µM (inactive); in the assay on UACC-257, > 100 µM (inactive); in the assay with SNB-75, 42.6 µM (inactive); in the assay on MOLT-4, > 100 µM (inactive). The GI50 in the assay with OVCAR-4 is > 100 µM (inactive).
For the compound `CC(=O)[C@]1(C)[C@H](C)O[C@](C)(CO)[C@H]1O[Si](C)(C)c1ccccc1`, the GI50 in the assay with SNB-19 is > 100 µM (inactive); in the assay with UO-31, 28.8 µM (inactive); with CCRF-CEM, 28.4 µM (inactive); in the assay on SF-295 it was 53 µM (inactive); in the assay with EKVX, 46.3 µM (inactive); in the assay on MCF7 it was 31.8 µM (inactive). The GI50 with CAKI-1 is 17.9 µM (inactive); with MDA-MB-435 it was 50.1 µM (inactive); in the assay on SK-OV-3, > 100 µM (inactive); in the assay with 786-0, 81.5 µM (inactive); in the assay with SR it was 31.8 µM (inactive); with NCI-H226, 67.9 µM (inactive). Also, the GI50 was 54.5 µM (inactive) with SF-268; 51.6 µM (inactive) in the assay with SN12C; 15.4 µM (inactive) in the assay on Malme-3M; 23 µM (inactive) with UACC-257; > 100 µM (inactive) in the assay with SNB-75; 34.6 µM (inactive) in the assay on MOLT-4. Besides, in the assay with OVCAR-4, the GI50 was 30.4 µM (inactive).
On to `c1cc(CSc2ncnc3[nH]cnc23)ccn1`, for which the GI50 with SNB-19 was > 100 µM (inactive); in the assay with UO-31, 57.8 µM (inactive); in the assay with CCRF-CEM, 66.8 µM (inactive); in the assay with SF-295, > 100 µM (inactive); in the assay with EKVX, > 100 µM (inactive); in the assay on MCF7 it was 83.4 µM (inactive). Moreover, the GI50 is > 100 µM (inactive) in the assay on CAKI-1; 53.2 µM (inactive) in the assay on MDA-MB-435; 41.3 µM (inactive) in the assay with SK-OV-3; 39 µM (inactive) with 786-0; 34.4 µM (inactive) in the assay with SR; > 100 µM (inactive) with NCI-H226. The GI50 with SF-268 was 92.9 µM (inactive); in the assay on SN12C it was > 100 µM (inactive); with Malme-3M, > 100 µM (inactive); with UACC-257, > 100 µM (inactive); in the assay on SNB-75, > 100 µM (inactive); in the assay on MOLT-4 it was 34.7 µM (inactive). Besides, the GI50 with OVCAR-4 was > 100 µM (inactive).
Regarding `Nc1ccc(OCCCc2c(-c3ccccc3)[nH]c(N)nc2=O)cc1`, the GI50 is 67.6 µM (inactive) in the assay on SNB-19; 26 µM (inactive) in the assay with UO-31; 43 µM (inactive) in the assay on CCRF-CEM; 34.8 µM (inactive) in the assay on SF-295; 0.398 µM (active) with EKVX; 40.3 µM (inactive) with MCF7. For the same compound, the GI50 was 91.6 µM (inactive) in the assay on CAKI-1; 49.7 µM (inactive) with MDA-MB-435; 21.4 µM (inactive) in the assay on SK-OV-3; 45.2 µM (inactive) in the assay on 786-0; > 100 µM (inactive) with SR; 31 µM (inactive) with NCI-H226. Besides, the GI50 was > 100 µM (inactive) in the assay on SF-268; 50.7 µM (inactive) in the assay with SN12C; 26.8 µM (inactive) in the assay on Malme-3M; 80.5 µM (inactive) in the assay with UACC-257; 66.4 µM (inactive) with SNB-75; 34.5 µM (inactive) in the assay on MOLT-4. Also, the GI50 in the assay with OVCAR-4 is 31.6 µM (inactive).
As to `Cn1c(=O)oc2cc(C(=O)CSC(=S)N3CCCCCC3)ccc21`, the GI50 with SNB-19 was > 100 µM (inactive); with UO-31, > 100 µM (inactive); with CCRF-CEM, 75.5 µM (inactive); with SF-295, 87.9 µM (inactive); in the assay with EKVX, > 100 µM (inactive); in the assay on MCF7 it was > 100 µM (inactive). Besides, the GI50 is > 100 µM (inactive) in the assay on CAKI-1; > 100 µM (inactive) with MDA-MB-435; > 100 µM (inactive) in the assay with SK-OV-3; > 100 µM (inactive) in the assay with 786-0; 56.2 µM (inactive) in the assay with SR; > 100 µM (inactive) in the assay with NCI-H226. Besides, the GI50 in the assay on SF-268 was > 100 µM (inactive); in the assay with SN12C it was > 100 µM (inactive); in the assay with Malme-3M, > 100 µM (inactive); in the assay with UACC-257 it was > 100 µM (inactive); in the assay with SNB-75, > 100 µM (inactive); with MOLT-4, 41.3 µM (inactive). In addition, in the assay with OVCAR-4, the GI50 was > 100 µM (inactive).
As to `COc1ccc(C[C@H]2NC[C@H](O)[C@H]2OC(C)=O)cc1` [ANISOMYCIN], the GI50 was < 0.0177 µM (active) in the assay with SNB-19; 0.0404 µM (active) with UO-31; < 0.0122 µM (active) with CCRF-CEM; < 0.0184 µM (active) with SF-295; 0.0361 µM (active) with EKVX; 0.0193 µM (active) in the assay on MCF7. Also, the GI50 was 0.0106 µM (active) in the assay with CAKI-1; 0.0259 µM (active) with MDA-MB-435; 0.0398 µM (active) in the assay with SK-OV-3; 0.018 µM (active) in the assay on 786-0; < 0.0143 µM (active) in the assay with SR; 0.0234 µM (active) in the assay on NCI-H226. The GI50 with SF-268 is 0.0361 µM (active); in the assay with SN12C it was 0.0166 µM (active); with Malme-3M it was 0.0552 µM (active); in the assay on UACC-257 it was 0.0359 µM (active); with SNB-75, < 0.0106 µM (active); in the assay on MOLT-4, < 0.013 µM (active). Also, the GI50 with OVCAR-4 was 0.0194 µM (active).
For `Nc1nc(Cl)c(N)c(NCC2(CO)CC(OCc3ccccc3)C2)n1` (centres undefined), the GI50 is > 100 µM (inactive) in the assay with SNB-19; > 100 µM (inactive) with UO-31; > 100 µM (inactive) in the assay with CCRF-CEM; > 100 µM (inactive) in the assay on SF-295; > 100 µM (inactive) with EKVX; 11.3 µM (inactive) in the assay on MCF7. The GI50 is > 100 µM (inactive) in the assay on CAKI-1; > 100 µM (inactive) in the assay with MDA-MB-435; > 100 µM (inactive) with SK-OV-3; > 100 µM (inactive) in the assay with 786-0; 6.5 µM (inactive) with SR; > 100 µM (inactive) with NCI-H226. Besides, the GI50 with SF-268 was > 100 µM (inactive); with SN12C, > 100 µM (inactive); in the assay on Malme-3M, > 100 µM (inactive); with UACC-257, 48.4 µM (inactive); in the assay on SNB-75, 70 µM (inactive); with MOLT-4 it was > 100 µM (inactive). Further, the GI50 with OVCAR-4 is > 100 µM (inactive).
With `CON(C)C(=O)[C@H]1C[C@@]1(C)CO`, the GI50 in the assay with SNB-19, in the assay with UO-31, in the assay with CCRF-CEM, with SF-295, in the assay with EKVX and with MCF7 was > 100 µM (inactive) throughout. Moreover, the GI50 in the assay with CAKI-1, with MDA-MB-435, in the assay on SK-OV-3, in the assay with 786-0, with SR and with NCI-H226 was > 100 µM (inactive) throughout. Further, the GI50 with SF-268, in the assay on SN12C, with Malme-3M, with UACC-257, in the assay with SNB-75 and in the assay with MOLT-4 was > 100 µM (inactive) throughout. In the assay on OVCAR-4, the GI50 was > 100 µM (inactive).
On to `Fc1cc(C2=C[C@H](c3ccc4c(c3)OCO4)NC(=S)N2)c(Cl)cc1Cl`, for which the GI50 in the assay on SNB-19 was 57.4 µM (inactive); in the assay with UO-31 it was 39.2 µM (inactive); in the assay on CCRF-CEM it was 21.8 µM (inactive); with SF-295, 31.9 µM (inactive); in the assay with EKVX, 22.2 µM (inactive); in the assay on MCF7 it was 32.2 µM (inactive). Besides, the GI50 in the assay with CAKI-1 is 34.8 µM (inactive); in the assay with MDA-MB-435 it was 34.6 µM (inactive); in the assay with SK-OV-3, 57 µM (inactive); in the assay with 786-0 it was 39.9 µM (inactive); with SR, 31.9 µM (inactive); in the assay with NCI-H226 it was 59.2 µM (inactive). In addition, the GI50 was 45.7 µM (inactive) in the assay with SF-268; 27.4 µM (inactive) with SN12C; 30.7 µM (inactive) in the assay on Malme-3M; 26.3 µM (inactive) with UACC-257; 20.8 µM (inactive) in the assay with SNB-75; 23.4 µM (inactive) with MOLT-4. Also, the GI50 with OVCAR-4 was 38.1 µM (inactive).
